Data published in patent publication US20100021938A1, “Diagnosis and Prediction of Alzheimer's Disease” (priority 2008, published 2010).

Tests used:
human platelets = assay: sAPPα release by human platelets, Western blot of supernatant (antibody 6E10); assay type: cell-based; details: for sAPPα release by washed platelets: collagen up to 5 μg/ml, ADP up to 25 μM
Description: FIG. 2: sAPPα release is mediated through G protein-coupled receptors. Human platelets (600,000 cells/μl) were incubated with 20 μM arachidonic acid (AA), U46,619 (500 nM), PAR1-AP (100 μM), PAR4-AP (200 μM) or thrombin (1 U/ml) for 1 h. The cells were then pelleted at 10,000×g for 15 min and the levels of sAPPα in the supernatant were determined by Western blot analysis using the antibody 6E10 (Calbiochem).
FIG. 3: The effect of arachidonic acid is mediated by the TP receptor. Left panel: Human platelets were incubated by increasing concentrations of U46,619 and sAPPa was analyzed in the supernatant as described for FIG. 2. Right panel: Human platelets were pre-incubated for 15 min with increasing concentration of an antagonist of the TP receptor, SQ29,548, prior addition of 7.5 μM of arachidonic acid. sAPPα release was analyzed by western blot.
FIG. 4: Activation of PGI2 receptor inhibits sAPPa release triggered by U46,619. Human platelets were pre-incubated for 30 min with increasing concentrations of carbaprostacylin prior addition of 500 nM of U46,619. After 1 h the levels of sAPPa in the supernatant were determined by western blot analysis. Protein bands were scanned and the pixels integrated. sAPPa release is expressed as a percent of maximum where no CP was added.
FIG. 5: PGE2 potentiates the effect of a sub-efficacious concentration of arachidonic acid. Washed platelets were pre-incubated for 2 min with increasing concentrations of PGE2 or vehicle prior addition of 0.5 μM of arachidonic acid. After 1 h, sAPPα release in the supernatant was determined by Western blot analysis as described in FIG. 2. Protein bands were scanned and the pixels integrated. sAPPα release is expressed as a percent of the maximum obtained with 7.5 nM PGE2 and 0.5 μM arachidonic acid.
Secretion of sAPPα has been analyzed in human platelets in response to various agonists.

[1] = target: T1, M1 muscarinic receptor (M1mAChR) (Homo sapiens, UniProt P11229); details: patients with AD (Nitsch et al., 2000); cited from earlier work
T1 construct: host or cells: patients with AD (endogenous receptor, in vivo)
T1 sequence (P11229 1-460): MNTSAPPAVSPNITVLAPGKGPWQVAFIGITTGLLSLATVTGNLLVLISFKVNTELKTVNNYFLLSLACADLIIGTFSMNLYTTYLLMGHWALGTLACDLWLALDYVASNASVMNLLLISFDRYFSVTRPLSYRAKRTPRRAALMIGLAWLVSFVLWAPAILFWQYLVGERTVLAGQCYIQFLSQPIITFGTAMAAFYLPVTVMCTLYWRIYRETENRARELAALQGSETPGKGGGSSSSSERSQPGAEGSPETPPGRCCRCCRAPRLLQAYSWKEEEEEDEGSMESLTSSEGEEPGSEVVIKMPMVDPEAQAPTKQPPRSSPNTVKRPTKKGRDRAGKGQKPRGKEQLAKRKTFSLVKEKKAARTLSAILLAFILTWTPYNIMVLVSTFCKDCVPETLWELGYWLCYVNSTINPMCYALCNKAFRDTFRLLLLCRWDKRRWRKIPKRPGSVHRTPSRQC

3xTg-AD mice = details: cited from earlier work
human washed platelets = assay: sAPPα and sAPPβ released from activated human washed platelets, LC/ESI/MS/MS; assay type: cell-based; details: 300 μl platelets at 600,000 cells/μl activated with 500 nM
Description: FIG. 10: Detection of the two sAPP isoforms released from human platelets. 300 μl of human washed platelets at 600,000 cells/μl were activated with 500 nM U46,619. sAPPs released in the medium were immunoprecipitated and digested with trypsin. The peptides were analyzed as described above. The product ions y6 and y4 were monitored for TEEISEVK and MDAEFR, respectively. Chromatograms of the two product ions are shown for each sAPP isoform.
Internal standards for each peptide were obtained by incorporation of a [^13C] labeled amino acid. Human washed platelets (600,000 cells/Ml, 300 μl) were activated with 500 nM of U46,619 and the release of sAPPs was analyzed after centrifuging the cells at 2,000×g for 15 min. After immunoprecipitation of the sAPPs and digestion with trypsin, 150 pg of MDAE[^13C]-FR and TEE[^13C]-ISEVK were added as internal standards and the samples were analyzed by LC/ESI/MS/MS using the LCQ Deca XP ion trap mass spectrometer (Thermo Scientific, Waltham, Mass.).

[2] = 3xTg-AD mice (Caccamo et al., 2006)

Nc1ncnc2c1ncn2[C@@H]1O[C@H](COP(=O)(O)OP(=O)(O)O)[C@@H](O)[C@H]1O [ADP]
sAPPα release by washed platelets (human platelets): had no effect on sAPPα release

CC1OC2(CS1)CN1CCC2CC1 (centres unmarked) [AF102B]
levels of amyloid in cerebrospinal fluid [1]: decrease the levels of amyloid in cerebrospinal fluid

CC[C@@H]1SC2(CCN(C)CC2)NC1=O [AF267B]
APP processing via the β-secretase pathway (3xTg-AD mice; [2]): decreases APP processing via the β-secretase pathway | development of amyloid pathology (3xTg-AD mice; [2]): decreases development of amyloid pathology | expression of ADAM 17/TACE (3xTg-AD mice; Caccamo et al., 2006): increases expression of ADAM 17/TACE

CCCCC[C@H](O)/C=C/[C@H]1[C@H](O)CC(=O)[C@@H]1C/C=C\CCCC(=O)O [PGE2]
potentiation of sAPPα release by sub-efficacious arachidonic acid (human platelets; concentrations higher than 10 nM, with 0.5 μM arachidonic acid): this potentiation effect was reversed | sAPPα release, compound by itself (human platelets; highest concentration used, without arachidonic acid): had no effect on sAPPα release | potentiation of sAPPα release by sub-efficacious arachidonic acid (human platelets; low nanomolar concentrations, pre-incubated 2 min prior to 0.5 μM arachidonic acid, 1 h): potentiates sAPPα release | concentration giving maximum sAPPα release with 0.5 μM arachidonic acid (human platelets; washed platelets, 0.5 μM arachidonic acid, 1 h): 7.5 nM

O=C(O)CCC/C=C\C[C@@H]1[C@H](CNNC(=O)Nc2ccccc2)[C@H]2CC[C@@H]1O2 [SQ29,548]
effect on sAPPα release triggered by arachidonic acid (human platelets; pre-incubated 15 min with increasing concentrations prior to 7.5 μM arachidonic acid): antagonized

CCCCC[C@H](O)/C=C/[C@@H]1[C@@H](C/C=C\CCCC(=O)O)[C@H]2CO[C@@H]1C2 [U46,619]
amount of sAPPα released (human washed platelets): 45 pg | amount of sAPPβ released (human washed platelets): 41 pg | sAPPα release in response to agonist (human platelets; human platelets 600,000 cells/μl, 1 h incubation, U46,619 500 nM, PAR1-AP 100 μM, PAR4-AP 200 μM): gave the same response as 20 μM of arachidonic acid | concentration giving maximal response of sAPPα release (human platelets; human platelets, increasing concentrations): 500 nM

CCCCC/C=C\C/C=C\C/C=C\C/C=C\CCCC(=O)O [arachidonic acid]
concentration giving maximal effect on sAPPα release (human platelets; human platelets): 7.5 µM

CCCCC[C@H](O)/C=C/[C@@H]1[C@H]2C/C(=C/CCCC(=O)O)C[C@H]2C[C@H]1O [carbaprostacyclin]
effect on sAPPα release triggered by U46,619 (human platelets; pre-incubated 30 min with increasing concentrations prior to 500 nM U46,619, 1 h): antagonized in a dose-dependent manner the effect of U46,619

collagen
sAPPα release by washed platelets (human platelets): failed to trigger release of sAPPα
